The record followed here is patent publication US9108944B2, “Androgen receptor modulators and uses thereof” (ARAGON PHARMACEUTICALS, INC., priority 2010, dated 2015).

Some results are limits rather than exact numbers.

One test has as its target T1, AR-VP16 (Homo sapiens, UniProt P10275).
T1 sequence (P10275 560-920 limits assumed): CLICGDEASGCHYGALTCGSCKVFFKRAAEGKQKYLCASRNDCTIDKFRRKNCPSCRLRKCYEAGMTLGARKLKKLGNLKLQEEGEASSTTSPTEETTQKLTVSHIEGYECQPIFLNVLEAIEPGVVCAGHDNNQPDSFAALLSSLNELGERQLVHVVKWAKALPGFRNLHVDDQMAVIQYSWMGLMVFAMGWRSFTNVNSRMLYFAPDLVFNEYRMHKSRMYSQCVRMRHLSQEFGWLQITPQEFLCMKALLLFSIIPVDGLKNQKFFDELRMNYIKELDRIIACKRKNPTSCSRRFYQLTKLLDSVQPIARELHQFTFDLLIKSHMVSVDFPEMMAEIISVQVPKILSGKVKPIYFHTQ
Kind of test: AR-VP16 DNA Binding Assay, antagonist mode (HepG2 cells, 0.1 nM R1881). The format is cell-based.
Conditions: not given
The method in brief:
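Transfected HepG2 cells expressing AR-VP16 received serially diluted compound in charcoal-stripped-serum RPMI the day after transfection, with 0.1 nM R1881 (final) added only for antagonist testing. After 48 h, cells were lysed for measurement.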
For `N#Cc1ncc(N2C(=O)C3(CCC3)N(c3ccc(O)c(F)c3)C2=S)cc1C(F)(F)F` [Compound 1, 5-(5-(3-Fluoro-4-hydroxyphenyl)-8-oxo-6-thioxo-5,7-diazaspiro[3.4]octan-7-yl)-3-(trifluoromethyl)picolinonitrile], the IC50 is under 1000 nM. As to `O=C1N(c2ccc3nnc(C(F)(F)F)n3n2)C(=S)N(c2ccc(O)cc2)C12CCC2` [Compound 2, 5-(4-Hydroxyphenyl)-6-thioxo-7-(3-(trifluoromethyl)-[1,2,4]triazolo[4,3-b]pyridazin-6-yl)-5,7-diazaspiro[3.4]octan-8-one], the IC50 is over 1000 nM. `COCCNC(=O)c1ccc(N2C(=S)N(c3cnc(C#N)c(C(F)(F)F)c3)C(=O)C23CCC3)cc1F` [Compound 248, 4-(7-(6-Cyano-5-(trifluoromethyl)pyridin-3-yl)-8-oxo-6-thioxo-5,7-diazaspiro[3.4]octan-5-yl)-2-fluoro-N-(2-methoxyethyl)benzamide] had an IC50 of over 1000 nM. On the same count and under the same terms, the result for `N#Cc1ncc(N2C(=O)C3(CCC3)N(c3ccc(C(=O)NCCCc4ccccc4)c(F)c3)C2=S)cc1C(F)(F)F` [Compound 258, 4-(7-(6-Cyano-5-(trifluoromethyl)pyridin-3-yl)-8-oxo-6-thioxo-5,7-diazaspiro[3.4]octan-5-yl)-2-fluoro-N-(3-phenylpropyl)benzamide] reads under 1000 nM.

Compound `N#Cc1ncc(N2C(=O)C3(CCC3)N(c3ccc(C(=O)NCc4cccs4)c(F)c3)C2=S)cc1C(F)(F)F` [Compound 260, 4-(7-(6-Cyano-5-(trifluoromethyl)pyridin-3-yl)-8-oxo-6-thioxo-5,7-diazaspiro[3.4]octan-5-yl)-2-fluoro-N-(thiophen-2-ylmethyl)benzamide] had a concentration for half-maximal inhibition (IC50) of under 1000 nM. Still for that read-out and setting: for `N#Cc1ncc(N2C(=O)C3(CCC3)N(c3ccc(C(=O)NCc4ccccn4)c(F)c3)C2=S)cc1C(F)(F)F` [Compound 264, 4-(7-(6-Cyano-5-(trifluoromethyl)pyridin-3-yl)-8-oxo-6-thioxo-5,7-diazaspiro[3.4]octan-5-yl)-2-fluoro-N-(pyridin-2-ylmethyl)benzamide] the value was under 1000 nM; for `N#Cc1ncc(N2C(=O)C3(CCC3)N(c3ccc(C(=O)NCc4cccnc4)c(F)c3)C2=S)cc1C(F)(F)F` [Compound 265, 4-(7-(6-Cyano-5-(trifluoromethyl)pyridin-3-yl)-8-oxo-6-thioxo-5,7-diazaspiro[3.4]octan-5-yl)-2-fluoro-N-(pyridin-3-ylmethyl)benzamide], under 1000 nM. The same measure, in the same setting: for `N#Cc1ncc(N2C(=O)C3(CCC3)N(c3ccc(C(=O)NC4CCCC4)c(F)c3)C2=S)cc1C(F)(F)F` [Compound 267, 4-(7-(6-Cyano-5-(trifluoromethyl)pyridin-3-yl)-8-oxo-6-thioxo-5,7-diazaspiro[3.4]octan-5-yl)-N-cyclopentyl-2-fluorobenzamide] the value was under 1000 nM; for `N#Cc1ncc(N2C(=O)C3(CCC3)N(c3ccc(C(=O)NCCCN4CCOCC4)c(F)c3)C2=S)cc1C(F)(F)F` [Compound 268, 4-(7-(6-Cyano-5-(trifluoromethyl)pyridin-3-yl)-8-oxo-6-thioxo-5,7-diazaspiro[3.4]octan-5-yl)-2-fluoro-N-(3-morpholinopropyl)benzamide], under 1000 nM; for `Cc1cc(N2C(=O)C3(CCC3)N(c3ccc(C(=O)NCc4ccccc4)c(F)c3)C2=S)cnc1C#N` [Compound 273, N-Benzyl-4-(7-(6-cyano-5-methylpyridin-3-yl)-8-oxo-6-thioxo-5,7-diazaspiro[3.4]octan-5-yl)-2-fluorobenzamide], under 1000 nM.

On to `CCCNC(=O)c1ccc(N2C(=S)N(c3cnc(C#N)c(C(F)(F)F)c3)C(=O)C23CCC3)cc1F` [Compound 278, 4-(7-(6-Cyano-5-(trifluoromethyl)pyridin-3-yl)-8-oxo-6-thioxo-5,7-diazaspiro[3.4]octan-5-yl)-2-fluoro-N-propylbenzamide], for which the IC50 was under 1000 nM. The same measure, in the same setting: the result for `C#CCNC(=O)c1ccc(N2C(=S)N(c3cnc(C#N)c(C(F)(F)F)c3)C(=O)C23CCC3)cc1F` [Compound 281, 4-(7-(6-Cyano-5-(trifluoromethyl)pyridin-3-yl)-8-oxo-6-thioxo-5,7-diazaspiro[3.4]octan-5-yl)-2-fluoro-N-(prop-2-yn-1-yl)benzamide] reads under 1000 nM; that for `CC(C)CCNC(=O)c1ccc(N2C(=S)N(c3cnc(C#N)c(C(F)(F)F)c3)C(=O)C23CCC3)cc1F` [Compound 282, 4-(7-(6-Cyano-5-(trifluoromethyl)pyridin-3-yl)-8-oxo-6-thioxo-5,7-diazaspiro[3.4]octan-5-yl)-2-fluoro-N-isopentylbenzamide], under 1000 nM; that for `N#Cc1ncc(N2C(=O)C3(CCC3)N(c3ccc(C(=O)NC4CC4)c(F)c3)C2=S)cc1C(F)(F)F` [Compound 284, 4-(7-(6-Cyano-5-(trifluoromethyl)pyridin-3-yl)-8-oxo-6-thioxo-5,7-diazaspiro[3.4]octan-5-yl)-N-cyclopropyl-2-fluorobenzamide], under 1000 nM. For the compound `CC(C)(O)CNC(=O)c1ccc(N2C(=S)N(c3cnc(C#N)c(C(F)(F)F)c3)C(=O)C23CCC3)cc1F` [Compound 285, 4-(7-(6-Cyano-5-(trifluoromethyl)pyridin-3-yl)-8-oxo-6-thioxo-5,7-diazaspiro[3.4]octan-5-yl)-2-fluoro-N-(2-hydroxy-2-methylpropyl)benzamide], the 50% inhibitory concentration (IC50) is over 1000 nM.

`CC(C)(C)NC(=O)c1ccc(N2C(=S)N(c3cnc(C#N)c(C(F)(F)F)c3)C(=O)C23CCC3)cc1F` [Compound 286, N-(tert-Butyl)-4-(7-(6-cyano-5-(trifluoromethyl)pyridin-3-yl)-8-oxo-6-thioxo-5,7-diazaspiro[3.4]octan-5-yl)-2-fluorobenzamide] gave an IC50 of under 1000 nM.

As for `N#Cc1ncc(N2C(=O)C3(CCC3)N(c3ccc(C(=O)NCc4ccccc4Cl)c(F)c3)C2=S)cc1C(F)(F)F` [Compound 287, N-(2-Chlorobenzyl)-4-(7-(6-cyano-5-(trifluoromethyl)pyridin-3-yl)-8-oxo-6-thioxo-5,7-diazaspiro[3.4]octan-5-yl)-2-fluorobenzamide], the IC50 was under 1000 nM. Still for that read-out and setting: for `Cc1cc(N2C(=O)C3(CCC3)N(c3ccc(C(=O)Nc4ccc(F)cc4)c(F)c3)C2=S)cnc1C#N` [Compound 299, 4-(7-(6-Cyano-5-methylpyridin-3-yl)-8-oxo-6-thioxo-5,7-diazaspiro[3.4]octan-5-yl)-2-fluoro-N-(4-fluorophenyl)benzamide] the value was under 1000 nM; for `Cc1cc(N2C(=O)C3(CCC3)N(c3ccc(C(=O)Nc4ncco4)c(F)c3)C2=S)cnc1C#N` [Compound 300, 4-(7-(6-cyano-5-methylpyridin-3-yl)-8-oxo-6-thioxo-5,7-diazaspiro[3.4]octan-5-yl)-2-fluoro-N-(oxazol-2-yl)benzamide], under 1000 nM. In turn, `Cc1cc(N2C(=O)C3(CCC3)N(c3ccc(C(=O)Nc4nccs4)c(F)c3)C2=S)cnc1C#N` [Compound 301, 4-(7-(6-Cyano-5-methylpyridin-3-yl)-8-oxo-6-thioxo-5,7-diazaspiro[3.4]octan-5-yl)-2-fluoro-N-(thiazol-2-yl)benzamide] came in with an IC50 of under 1000 nM. Still for that read-out and setting: the result for `Cc1cc(N2C(=O)C3(CCC3)N(c3ccc(C(=O)Nc4ccnn4C)c(F)c3)C2=S)cnc1C#N` [Compound 302, 4-(7-(6-Cyano-5-methylpyridin-3-yl)-8-oxo-6-thioxo-5,7-diazaspiro[3.4]octan-5-yl)-2-fluoro-N-(1-methyl-1H-pyrazol-5-yl)benzamide] reads under 1000 nM; that for `Cc1ccc(NC(=O)c2ccc(N3C(=S)N(c4cnc(C#N)c(C)c4)C(=O)C34CCC4)cc2F)cn1` [Compound 304, 4-(7-(6-Cyano-5-methylpyridin-3-yl)-8-oxo-6-thioxo-5,7-diazaspiro[3.4]octan-5-yl)-2-fluoro-N-(6-methylpyridin-3-yl)benzamide], under 1000 nM. On the same count and under the same terms, the result for `CN1CCN(C(=O)COc2ccc(N3C(=S)N(c4cnc(C#N)c(C(F)(F)F)c4)C(=O)C34CCC4)cc2F)CC1` [Compound 309, 5-(5-(3-Fluoro-4-(2-(4-methylpiperazin-1-yl)-2-oxoethoxy)phenyl)-8-oxo-6-thioxo-5,7-diazaspiro[3.4]octan-7-yl)-3-(trifluoromethyl)picolinonitrile] reads under 1000 nM. `Cc1cc(N2C(=O)C3(CCC3)N(c3ccc(C(=O)NC4CCOCC4)c(F)c3)C2=S)cnc1C#N` [Compound 310, 4-(7-(6-Cyano-5-methylpyridin-3-yl)-8-oxo-6-thioxo-5,7-diazaspiro[3.4]octan-5-yl)-2-fluoro-N-(tetrahydro-2H-pyran-4-yl)benzamide] had an IC50 of over 1000 nM.

A further test deals with T1, AR-VP16. Kind of test: AR-VP16 DNA Binding Assay, agonist mode (HepG2 cells). Format: cell-based. The conditions noted are these: Emax >20x DMSO control = agonist.
With `N#Cc1ncc(N2C(=O)C3(CCC3)N(c3ccc(O)c(F)c3)C2=S)cc1C(F)(F)F` [Compound 1, 5-(5-(3-Fluoro-4-hydroxyphenyl)-8-oxo-6-thioxo-5,7-diazaspiro[3.4]octan-7-yl)-3-(trifluoromethyl)picolinonitrile], the “ARVP16 DNA Binding Assay (Agonist mode): Agonist?” value is on record as “No (Agonist defined as a compound whose Emax in the ARVP16 DNA Binding Assay (Agonist mode) is >20x DMSO control)”. Same read-out and setting: for `O=C1N(c2ccc3nnc(C(F)(F)F)n3n2)C(=S)N(c2ccc(O)cc2)C12CCC2` [Compound 2, 5-(4-Hydroxyphenyl)-6-thioxo-7-(3-(trifluoromethyl)-[1,2,4]triazolo[4,3-b]pyridazin-6-yl)-5,7-diazaspiro[3.4]octan-8-one] the value was “No (Agonist defined as a compound whose Emax in the ARVP16 DNA Binding Assay (Agonist mode) is >20x DMSO control)”; for `CN1CCC(Oc2ccc(N3C(=S)N(c4cnc(C#N)c(C(F)(F)F)c4)C(=O)C34CCC4)cc2)CC1` [Compound 129, 5-(5-(4-((1-Methylpiperidin-4-yl)oxy)phenyl)-8-oxo-6-thioxo-5,7-diazaspiro[3.4]octan-7-yl)-3-(trifluoromethyl)picolinonitrile], “No (Agonist defined as a compound whose Emax in the ARVP16 DNA Binding Assay (Agonist mode) is >20x DMSO control)”.

The IC50 is the concentration needed to halve the response being measured. A lower IC50 goes with higher potency.
